Assay results taken from ChEMBL document CHEMBL5365469, “Design, synthesis and antitumor effects of novel benzimidazole derivatives as PI3K inhibitors” (Bioorg Med Chem Lett, 2023).

Key:
[1] = tested on: HepG2; test: Antiproliferative activity against human HepG2 cells assessed as inhibition of cell growth by MTT assay; type: functional, cell-based
[2] = tested on: PC-3; test: Antiproliferative activity against human PC-3 cells assessed as inhibition of cell growth by MTT assay; type: functional, cell-based
[3] = tested on: HCT-116; test: Antiproliferative activity against human HCT-116 cells assessed as inhibition of cell growth by MTT assay; type: functional, cell-based
[4] = tested on: SiHa; test: Antiproliferative activity against human SiHa cells assessed as inhibition of cell growth by MTT assay; type: functional, cell-based
[5] = tested on: MCF7; test: Antiproliferative activity against human MCF7 cells assessed as inhibition of cell growth by MTT assay; type: functional, cell-based
[6] = tested on: A549; test: Antiproliferative activity against human A549 cells assessed as inhibition of cell growth by MTT assay; type: functional, cell-based
[7] = tested on: A549; test: Induction of apoptosis in human A549 cells assessed as increase in apoptotic cells at 6 uM incubated for 48 hrs by Annexin V-FITC/PI staining analysis relative to control; type: functional
[8] = tested on: A549; test: Induction of cell cycle arrest in human A549 cells assessed as accumulation of cells at S phase at 6 uM by FACS analysis ( Rvb = 40.71%); type: functional
[9] = tested on: A549; test: Induction of cell cycle arrest in human A549 cells assessed as accumulation of cells at G2/M phase at 6 uM by FACS analysis ( Rvb = 9.35%); type: functional
[10] = tested on: A549; test: Inhibition of PI3K signalling pathway in human […] cells assessed as decrease in phosphorylated PI3K level by Western blot assay; type: cell-based; settings: dose 1.5-6 µM
[11] = tested on: A549; test: Induction of apoptosis in human A549 cells assessed as increase in apoptotic cells at 1.5 uM incubated for 48 hrs by Annexin V-FITC/PI staining analysis relative to control; type: functional
[12] = tested on: A549; test: Induction of cell cycle arrest in human A549 cells assessed as accumulation of cells at G2/M phase at 3 uM by FACS analysis ( Rvb = 9.35%); type: functional
[13] = tested on: A549; test: Induction of cell cycle arrest in human A549 cells assessed as accumulation of cells at G0/G1 phase at 3 uM by FACS analysis ( Rvb = 49.93%); type: functional
[14] = Cytotoxicity against human L02 cells assessed as inhibition of cell growth by MTT assay; type: toxicity, cell-based
[15] = tested on: A549; test: Induction of cell cycle arrest in human A549 cells assessed as accumulation of cells at G0/G1 phase at 1.5 uM by FACS analysis ( Rvb = 49.93%); type: functional
[16] = tested on: A549; test: Inhibition of PI3K signalling pathway in human […] cells assessed as decrease in phosphorylated AKT level by Western blot assay; type: cell-based; settings: dose 1.5-6 µM
[17] = tested on: A549; test: Induction of cell cycle arrest in human A549 cells assessed as accumulation of cells at S phase at 3 uM by FACS analysis ( Rvb = 40.71%); type: functional
[18] = tested on: A549; test: Induction of cell cycle arrest in human A549 cells assessed as accumulation of cells at S phase at 1.5 uM by FACS analysis ( Rvb = 40.71%); type: functional
[19] = tested on: A549; test: Induction of cell cycle arrest in human A549 cells assessed as accumulation of cells at G2/M phase at 1.5 uM by FACS analysis ( Rvb = 9.35%); type: functional
[20] = tested on: A549; test: Induction of cell cycle arrest in human A549 cells assessed as accumulation of cells at G0/G1 phase at 6 uM by FACS analysis ( Rvb = 49.93%); type: functional
[21] = tested on: A549; test: Induction of apoptosis in human A549 cells assessed as increase in apoptotic cells at 3 uM incubated for 48 hrs by Annexin V-FITC/PI staining analysis relative to control; type: functional

Row | Compound | IC50 [1] [µM] | IC50 [2] [µM] | IC50 [3] [µM] | IC50 [5] [µM] | IC50 [6] [µM] | IC50 [4] [µM] | further results
1 | COc1ccc(C#Cc2cc3[nH]c(-c4ccc(OC)c(OC)c4OC)nc3cc2OC)cc1 | 94.8 | > 100 | > 100 | > 100 | > 100 | > 100 | –
2 | COc1cc2nc(-c3ccc(OC)c(OC)c3OC)[nH]c2cc1/C=C(\C)C(N)=O | > 100 | 90.8 | > 100 | > 100 | > 100 | > 100 | –
3 | COc1cc2nc(-c3ccc(OC)c(OC)c3OC)[nH]c2cc1C#Cc1ccccc1Cl | 96.8 | 22.7 | 81.4 | > 100 | > 100 | > 100 | –
4 | COc1cc2nc(-c3ccc(OC)c(OC)c3OC)[nH]c2cc1/C=C/C(=O)NCCO | > 100 | 65.4 | 53.9 | > 100 | > 100 | 22.6 | –
5 | COc1cc2nc(-c3cc(OC)c(OC)cc3OC)[nH]c2cc1C#Cc1ccccc1F | 88.7 | 25.5 | 1.68 | 2.01 | 1.55 | 9.36 | Activity [7]: 63.1%; Activity [8]: 32.41%; Activity [9]: 6.64%; inhibition [10]: Dose-Dependent Effect; Activity [11]: 28.97%; Activity [12]: 7.83%; Activity [13]: 54.95%; IC50 [14]: 41.5 µM; Activity [15]: 54.14%; inhibition [16]: Dose-Dependent Effect; Activity [17]: 37.22%; Activity [18]: 37.71%; Activity [19]: 8.15%; Activity [20]: 60.61%; Activity [21]: 61.73%
6 | COc1cc2nc(-c3cc(OC)c(OC)cc3OC)[nH]c2cc1/C=C/C(=O)NCCO | > 100 | > 100 | > 100 | > 100 | > 100 | > 100 | –
7 | Nc1cc(C(F)(F)F)c(-c2cc(N3CCOCC3)nc(N3CCOCC3)n2)cn1 [BUPARLISIB] | 23.6 | 12.1 | 3.73 | 16.4 | 9.75 | 7.18 | Activity [12]: 36.68%; Activity [13]: 35.32%; Activity [17]: 27.99%
8 | COc1cc2nc(-c3ccc(OC)c(OC)c3OC)[nH]c2cc1/C=C/C(=O)NC(C)(C)C | > 100 | 19.6 | 15.3 | > 100 | > 100 | 38 | –
9 | COc1cc2nc(-c3cc(OC)c(OC)cc3OC)[nH]c2cc1/C=C/C(N)=O | > 100 | 22.6 | 29 | 77.8 | 93.3 | 5.27 | –
10 | COc1cc2nc(-c3ccc(OC)c(OC)c3OC)[nH]c2cc1/C=C/C(N)=O | > 100 | > 100 | > 100 | > 100 | > 100 | > 100 | –
11 | COc1cc2nc(-c3ccc(OC)c(OC)c3OC)[nH]c2cc1C#Cc1ccc(C(F)(F)F)cc1 | 56.8 | 41.1 | 15 | > 100 | 46.1 | 86.6 | –
12 | COc1cc2nc(-c3ccc(OC)c(OC)c3OC)[nH]c2cc1C#Cc1ccccc1F | 35.6 | 26.9 | 39.3 | > 100 | > 100 | > 100 | –
13 | CCOC(=O)/C=C/c1cc2[nH]c(-c3cc(OC)c(OC)cc3OC)nc2cc1OC | 13.7 | 4.01 | 6.94 | 22 | 14.8 | 9.8 | –
14 | COc1cc2nc(-c3cc(OC)c(OC)cc3OC)[nH]c2cc1C#Cc1ccc(Cl)cc1 | 19.4 | 10.5 | 3.05 | 6.65 | > 100 | > 100 | –
15 | COc1cc2nc(-c3ccc(OC)c(OC)c3OC)[nH]c2cc1/C=C/C(=O)NC(C)C | 36.8 | 46 | 38.4 | > 100 | 85.4 | 72.3 | –

Second part, led by results:

Row | IC50 [1] [µM] | IC50 [2] [µM] | IC50 [3] [µM] | IC50 [5] [µM] | IC50 [6] [µM] | Compound | IC50 [4] [µM] | further results
16 | 87.4 | 8.45 | 12 | 15.5 | > 100 | COc1cc2nc(-c3cc(OC)c(OC)cc3OC)[nH]c2cc1/C=C/C(=O)N1CCOCC1 | 6.57 | –
17 | 66.2 | 20.4 | 10.4 | > 100 | > 100 | COc1cc2nc(-c3ccc(OC)c(OC)c3OC)[nH]c2cc1C#Cc1ccc(Cl)cc1 | > 100 | –
18 | 55.6 | 92.6 | 37.4 | > 100 | > 100 | COc1cc2nc(-c3cc(OC)c(OC)cc3OC)[nH]c2cc1/C=C/C(=O)NC(C)C | > 100 | –
19 | > 100 | 37.6 | 67.8 | > 100 | > 100 | COc1cc2nc(-c3ccc(OC)c(OC)c3OC)[nH]c2cc1/C=C/C(=O)N1CCOCC1 | 76 | –
20 | 13 | 3.74 | 3.11 | 21.7 | 8.36 | COc1cc2nc(-c3cc(OC)c(OC)cc3OC)[nH]c2cc1/C=C/C(=O)NC(C)(C)C | 3.48 | –
21 | 23.3 | 57.3 | > 100 | 27 | > 100 | COc1cc2nc(-c3cc(OC)c(OC)cc3OC)[nH]c2cc1C#Cc1ccccc1Cl | 90.8 | –
22 | 88.7 | 20.2 | 3.02 | 7.14 | 9.7 | COc1ccc(C#Cc2cc3[nH]c(-c4cc(OC)c(OC)cc4OC)nc3cc2OC)cc1 | 33.4 | –
23 | 61 | 22.1 | 32.9 | 57.3 | 73.4 | COc1cc2nc(-c3cc(OC)c(OC)cc3OC)[nH]c2cc1/C=C(\C)C(N)=O | 33.5 | –
24 | > 100 | 84.9 | 75.1 | > 100 | > 100 | CCOC(=O)/C=C/c1cc2[nH]c(-c3ccc(OC)c(OC)c3OC)nc2cc1OC | 80.6 | –
25 | 44.6 | 19.5 | 4.47 | 66.7 | 33.1 | COc1cc2nc(-c3cc(OC)c(OC)cc3OC)[nH]c2cc1C#Cc1ccc(C(F)(F)F)cc1 | 24.4 | –
